Results as given in patent US20260258000A1, “THYMIDYLATE SYNTHASE INHIBITORS AND USES THEREOF” (University of Florida Research Foundation, Incorporated, priority 2021, published 2026).
“Also recorded” adds a separate entry of the source.

Experiments:
[1] = biological target: T1, human thymidylate synthase (hTS) (Homo sapiens, UniProt P04818); test: Tritium based TS catalytic activity assay; assay type: biochemical
T1 construct: 6xHis (N); made in house; host or cells: E. coli BL21 (DE3)
Description: The catalytic activity of TS was determined by measuring the release of [31] from [5-3H]dUMP (ViTrax, VT122) resulting from the conversion of dUMP to dTMP as previously described12,33. […] Reactions were performed in 50 mM KH2PO4 (Sigma Aldrich, P0662) at pH 7.2 using 2 μg of purified human TS. Reactions were performed in a final volume of 200 μL with 100 mM β-mercaptoethanol (Sigma Aldrich, M7522), 40 μM dUMP (Sigma Aldrich, D3876), 100 μM 5,10-mTHF, and the [5-3H]dUMP tracer (ViTrax, VT122) accounting for 0.06% of the final dUMP concentration in the reaction. […] Reactions were initiated by the addition of the dUMP substrate and 5,10-mTHF cofactor, then incubated at 37° C. for 30 minutes. […] Reactions were terminated by the addition of 100 μL of ice-cold 20% trichloroacetic acid (Sigma Aldrich, T6399), then excess [5-31-]dUMP was removed by the addition of 200 μL of an albumin-coated activated charcoal solution. The albumin-coated activated charcoal solution was prepared by mixing 10 g of acid-washed activated dextran coated charcoal (Sigma Aldrich, C6241) with 2.5 g of bovine albumin (Sigma Aldrich, A1933) in 100 mL of H2O. The suspension was incubated at room temperature for 30 minutes and then centrifuged for 30 minutes at 10,000×g. […] For all experiments, positive control reactions were performed with no drug representing 100% TS activity, and negative control reactions were performed with no TS enzyme or no 5,10-mTHF substrate representing 0% TS activity. All assays were performed in biological duplicate and technical duplicate. Results were analyzed using GraphPad Prism 8.

[2] = tested on: TS protein expression in PANC-1 cells; test: Immunoblot analysis of TS expression in PANC-1 cells; assay type: cell-based; details: PANC-1 cells treated 72 hours (FIG. 1D)
Description: To prepare lysates, 0.5×10^6 PA NC-1 cells were seeded in 100 mm dishes in 10 ml DMEM High glucose and 24 hours later, 5-FU (Sigma) or 19-S were added at the specified concentrations. Cells were harvested after 72 hours and cell pellets were stored at −80° C. For GI50 determination, 3000 MIA PaCa-2 cells. […] After 72 hours, cell viability was assessed by reduction of MTS ((3-4,5-dimethylthiazol-2-yl)-5-(3-carboxymethoxyphenol)-2-(4-sulfophenyl)-2H-tetrazolium) using Cell Titer 96 R Aqueous One Solution Cell Proliferation Assay Kit (Promega), following manufacturer's recommendations. Chemiluminescent output (integration time 1000 ms) was measured on a SpectraMax M3® (Molecular devices). […]
Protein lysates were generated using RIPA buffer (Santa Cruz) for 20 minutes on ice, followed by 15 minutes centrifugation at 13,000 rpm, at 4° C. […] Protein was quantified using Bradford Assay (BioRad) following manufacturer's recommendations, standard curves were generated with bovine serum albumin (Fisher).
20 μg of total protein lysate was loaded per lane of 10% Tris Glycine Gel (Invitrogen). […] Signal was detected using West Pico Plus chemiluminescent substrate (Thermo Scientific) following manufacturer's recommendations. […] For protein level quantification relative to loading control, densitometric analysis was performed by ImageJ software.

human TS = biological target: T2, human TS (Homo sapiens, UniProt P04818); test: Competitive drug displacement assay (tritium TS assay); assay type: biochemical; details: TS pre-incubated with drug
T2 construct: 6xHis (N); made in house; host or cells: E. coli BL21 (DE3)
Description: For these experiments the TS protein was first incubated with each drug, the reaction was then initiated by addition of 5,10-mTHF and dUMP using different concentrations of either 5,10-mTHF or dUMP to change the substrate:drug ratio. If there was competition between one of the substrates and the drug for the same binding site, increasing the substrate concentration will displace more of the pre-bound drug and shift the equilibrium towards the enzyme: substrate complex, thus allowing the conversion of dUMP to proceed (FIG. 5A).
The competitive drug displacement assay utilized the standard reaction conditions for the tritium based TS catalytic activity assay including 40 μM dUMP (Sigma Aldrich, D3876) with the [5-3H]dUMP tracer (ViTrax, VT122) accounting for 0.06% of the final dUMP concentration and 100 μM 5,10-methylene tetrahydrofolate (defined as 1× dUMP and 1×5,10-mTHF). Concentrations of total dUMP and 5,10-mTHF were then changed relative to these 1× concentrations to concisely indicate the changes in either the substrate or cofactor concentration. […] The remaining components in each 200 μL reaction were consistent in all reactions and included 2 μg of purified human TS in 50 mM KH2PO4 (Sigma Aldrich, P0662) and 100 mM β-mercaptoethanol (Sigma Aldrich, M7522).

T1 sequence (P04818 whole entry): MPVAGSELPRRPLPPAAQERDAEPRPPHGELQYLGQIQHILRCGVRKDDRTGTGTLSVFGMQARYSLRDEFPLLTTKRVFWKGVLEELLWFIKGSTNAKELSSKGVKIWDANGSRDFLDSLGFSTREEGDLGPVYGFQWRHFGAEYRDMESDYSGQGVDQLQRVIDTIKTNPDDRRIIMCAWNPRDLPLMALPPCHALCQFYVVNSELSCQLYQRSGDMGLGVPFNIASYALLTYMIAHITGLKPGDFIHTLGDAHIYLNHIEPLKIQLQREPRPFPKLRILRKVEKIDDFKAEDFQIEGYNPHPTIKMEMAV
T2 sequence (P04818 whole entry): as above

SMILES: CCc1nc(N)nc(N)c1-c1ccc(N(C)Cc2ccccc2)c([N+](=O)[O-])c1 [Compound 19-S]
- inhibition of TS catalytic activity, 19-S series library screen ([1]; 250 uM (FIG. 4A)): inhibited TS activity
- TS inhibition at decreasing drug concentrations ([1]; compared with Pem and MTX controls (FIG. 4C)): greater TS inhibition than both MTX and Pen; also recorded: both strong TS and DHFR inhibition
- TS activity (conversion of dUMP) ([1]; drug 250 μM, 10 μg/mL bacterially expressed TS protein (FIG. 1B)): comparable TS inhibition as seen with the 5-FU metabolite FdUrd
- TS protein expression (steady-state TS levels) [2]: no increase in steady-state TS levels
- dUMP conversion with increasing 5,10-mTHF concentration (drug displacement) (human TS; 5,10-mTHF up to 5×): increased the amount of dUMP conversion
- dUMP conversion with increasing dUMP concentration (drug displacement) (human TS; dUMP up to 5×): the amount of dUMP conversion did not increase
